The source of these data is patent US10106516B2, “PDE10 inhibitors and related compositions and methods” (Omeros Corporation, priority 2010, dated 2018).

Structures are written as SMILES.

In one assay the target is T1, PDE10 (Homo sapiens, UniProt Q9Y233).
T1 construct: made in house; host or cells: Sf9 insect cells (baculovirus)
In words: PDE10 biochemical assay (two-step Thompson and Appleman method or SPA). Particulars: PDE10 inhibition. On the procedure: In short, cAMP is spiked with (^3H)cAMP and incubated with PDE10 and various concentrations of a compound of structure (I). After the appropriate incubation time, the reaction is terminated by heating. The mixture is then subjected to treatment with snake venom phosphatase. The phosphatase hydrolyzes any AMP in the mixture, but leaves unreacted cAMP intact. Thus, by separating cAMP from the mixture and determining its concentration (by radiography), the percent of inhibition can be determined. IC50 values can be calculated by performing the experiment at several concentrations using standard graphical means. A detailed description of the actual technique used for IC50 assays as set forth in following Examples.
The phosphodiesterase (PDE) assay was performed using recombinant human PDE 1A3, 2A3, 3 catalytic region, 4 catalytic region, 5 catalytic region, 7A, 8A, 9A2, 10A1 and 11A1 enzymes expressed in a baculoviral system using Sf9 cells. PDE activity was measured using a modification of the two-step method of Thompson and Appleman described above which was adapted for 96 well plate format. […] The final assay volume was 110 μl with assay buffer (10 mM MgCl2; 40 mM Tris.HCl; pH 7.4). Reactions were initiated with enzyme and incubated with (^3H)-substrate and substance for 20 minutes at 30° C. The reaction was terminated by denaturing the enzyme (heating the reaction to 70° C. for 2 minutes). The reaction was then cooled at 4° C. for 10 minutes before the addition of snake venom (Crotalus atrox, 0.2 mg/ml) for 10 minutes at 30° C., thus allowing non-specific hydrolysis of the tritiated substrate. Separation of the remaining unhydrolysed cyclic nucleotide was achieved by a batch binding of the mixture to activated Dowex (200 μl) anion exchange resin. The anion exchange resin bound the charged nucleotides, leaving only hydrolysed (^3H) substrate in the soluble fraction. The soluble fraction (50 μl) was then added to microscint-20 (200 μl) and counted on a Top Count Plate reader. Radioactivity units were plotted against inhibitor concentration and IC50 values obtained using Graph Pad Prism software.
Alternatively, phosphodiesterase activity was measured by scintillation proximity assay (SPA) with [^3H]-cGMP as substrate. Purified PDE10 was diluted and stored in 25 mM Tris-Cl (pH 8.0)/100 mM NaCl/0.05% Tween 20/50% glycerol/3 mM DTT. Assays contained (final concentrations): 50 mM Tris-Cl (pH 7.5)/8.3 mM MgCl2/1.7 mM EGTA/0.5 mg/ml BSA/5% DMSO and 2 ng PDE10 in a final volume of 0.1 mL. Inhibition was evaluated at 8 concentrations in duplicate. Reactions were initiated by addition of enzyme and were terminated after 20 minutes at 30° C. by the addition of 50 μl of SPA beads containing Zn^++. The mixture was shaken, allowed to settle for 3 hours, and counted in a Wallac plate counter. Results (net cpm) were fitted to a four parameter logistic model using Excel Solver®.

Assay [1] concerns C57BL/6 male mice. In words: PCP-induced hyperactivity model of psychosis. The class given is in vivo. The conditions noted are these: vs vehicle+PCP control. On the procedure: (§1) Dosing of the compounds is by intraperitoneal (i.p.) injection or oral gavage (p.o.). Intraperitoneal injection is accomplished by restraining the animal, exposing the abdomen and inserting the needle just above the knees on the mouse's right side. Oral gavage is performed by restraining the animal in such a way that its head is tilted back and the esophagus is relatively straight. The gavage needle (20 G×1.5″, Cadence Science) is inserted into the mouth in line with the body and gently pushed along the esophagus and into the stomach. If resistance is encountered the needle is removed and reinserted.
Psychostimulant-induced hyperactivity is measured by injecting animals with PCP and monitoring the animals' activity levels in VersaMax chambers (Accuscan Instruments, Columbus, Ohio) measuring 40×40 cm. Locomotor activity is detected by photobeam breaks as the animal crosses each beam. The animal is placed in the center of the field and left undisturbed for 20 minutes to measure its spontaneous activity in a novel environment. Measurements used to assess locomotor activity include: horizontal activity, total distance traveled, vertical activity (rearing events—animal raises up on hindlimbs), rotation, stereotypy, and distance traveled in the center compared to total distance traveled (center:total distance ratio). The NMDA antagonist PCP induces a psychosis-like syndrome manifest as hyperactivity and increased stereotypic behavior. Known antipsychotics are able to reverse psychostimulant-induced hyperactivity and stereotypy.
C57BL/6 male mice were given either compound 1-1 or vehicle by intraperitoneal injection (FIG. 1) or oral gavage (FIG. 2). Twenty minutes (for i.p.) or forty minutes (for p.o.) later, they were injected with PCP (5 mg/kg, i.p.). Ten minutes later, the mice were placed in activity chambers and their locomotor activity in the horizontal dimension was monitored by infrared beam breaks for 20 min (5 consecutive 4-minute intervals (INT) as indicated).
C57BL/6 male mice were given either compound 2-1 or vehicle by intraperitoneal injection (FIG. 3) or oral gavage (FIG. 4). Twenty minutes (for i.p.) or 40 minutes (for p.o.) later, they were injected with PCP (5 mg/kg, i.p.). Ten minutes later, the mice were placed in activity chambers and their locomotor activity in the horizontal dimension was monitored by infrared beam breaks for 20 min (5 consecutive 4-minute intervals (INT) as indicated).
C57BL/6 male mice were given either compound 11-1 or vehicle by intraperitoneal injection. Five minutes later they were injected with PCP (5 mg/kg, i.p.). Ten minutes later, the mice were placed in activity chambers and their locomotor activity in the horizontal dimension was monitored by infrared beam breaks for 20 min (5 consecutive 4-minute intervals (INT) as indicated).

The subject of assay [2] is C57BL/6 male mice. Description: Conditioned avoidance response (CAR) model of psychosis. The class given is in vivo. Particulars: vs vehicle. How it is done: as §1
Conditioned avoidance response (CAR) is a behavioral test to evaluate the antipsychotic effect of a test compound. It utilizes a shuttle box (Med Associates, St. Albans, Vt.) with two identical chambers separated by a retractable door. Each chamber is fitted with a metal grid floor that is capable of delivering electric shocks independently. A computer program is used to implement the testing paradigm as well as record the animal's movement between the two chambers through infrared beam sensors. The testing paradigm is as follows. A mouse is placed into one chamber. A light (conditioned stimulus, CS) comes on. Five seconds later, mild electric shocks (0.4 mA; (unconditioned stimulus, US) are delivered to the chamber where the mouse is located (as detected by infrared beams) until the mouse escapes to the adjacent chamber or until 10 sec has elapsed. The US and CS always co-terminate. With randomized inter-trial intervals averaging 15 sec, 30 such CS-US pairing trials are given to each mouse each day. For each trial, an escape response is registered if the mouse crosses to the other chamber after being shocked (i.e., during the 10-sec US period), and an avoidance response is registered if the mouse crosses to the other chamber during the first 5-sec CS only period. The animals are trained in this paradigm for 30-40 days, during which the average percentage of avoidance responses will improve to 80-90%. […] These trained animals are then used for compound testing with the same paradigm.
C57BL/6 male mice were trained in the CAR paradigm to predict and avoid the noxious stimulus (foot shock), reaching a plateau of approximately 25 avoidance responses per 30 trials each day. […] Vehicle treatment and compound treatment were given to the same animals on alternating days, and the effect of compound in reducing avoidance response was analyzed through within-subject comparison (paired t-test).
C57BL/6 male mice were trained in the CAR paradigm to predict and avoid the noxious stimulus (foot shock), reaching a plateau of approximately 25-28 avoidance responses per 30 trials (“training plateau”) each day. […] Vehicle treatment and compound treatment were given to the same animals on alternating days, and the effect of compound in reducing avoidance response was analyzed through within-subject comparison (paired t-test).

The mark [3] stands for this setting: 10 mg/kg oral gavage, 25 minutes prior to testing.
[4] abbreviates: 2 mg/kg oral gavage, 55 minutes prior to testing.
[5] abbreviates: 5 mg/kg oral gavage, 55 minutes prior to testing.
[6] abbreviates: 10 mg/kg oral gavage, 55 minutes prior to testing.

T1 sequence (Q9Y233 1-779 isoform Q9Y233-1): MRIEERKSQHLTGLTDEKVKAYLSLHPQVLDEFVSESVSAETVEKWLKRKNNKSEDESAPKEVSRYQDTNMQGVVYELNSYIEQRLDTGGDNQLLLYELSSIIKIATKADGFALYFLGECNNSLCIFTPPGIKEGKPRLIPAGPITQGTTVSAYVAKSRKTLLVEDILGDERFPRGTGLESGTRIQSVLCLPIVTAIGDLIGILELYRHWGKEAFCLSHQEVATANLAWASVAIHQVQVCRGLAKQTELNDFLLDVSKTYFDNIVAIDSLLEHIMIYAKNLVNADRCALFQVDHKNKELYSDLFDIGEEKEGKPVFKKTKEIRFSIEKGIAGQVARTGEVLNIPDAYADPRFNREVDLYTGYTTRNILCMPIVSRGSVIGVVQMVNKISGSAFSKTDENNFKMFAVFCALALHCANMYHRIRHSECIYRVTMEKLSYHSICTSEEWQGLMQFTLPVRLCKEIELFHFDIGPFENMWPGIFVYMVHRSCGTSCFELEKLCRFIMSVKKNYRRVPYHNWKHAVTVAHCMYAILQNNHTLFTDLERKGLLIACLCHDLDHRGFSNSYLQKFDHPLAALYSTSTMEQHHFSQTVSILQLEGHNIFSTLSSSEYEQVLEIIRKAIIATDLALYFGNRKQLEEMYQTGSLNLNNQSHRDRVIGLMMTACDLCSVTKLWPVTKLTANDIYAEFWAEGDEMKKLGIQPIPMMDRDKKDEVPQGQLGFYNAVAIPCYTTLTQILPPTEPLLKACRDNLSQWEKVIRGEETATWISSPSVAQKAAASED

Usually IC50 stands for the midpoint of a concentration-inhibition curve. Low readings indicate higher potency, high ones lower potency. For the compound `COc1cc(-c2csc(C(=O)C(OC)c3ccc(N4CCOCC4)cc3)n2)cc(OC)c1Br` (stereo not drawn) [Compound 1-1, 1-(4-(4-Bromo-3,5-Dimethoxyphenyl)Thiazol-2-Yl)-2-Methoxy-2-(4-Morpholinophenyl)Ethanone], the half-maximal inhibitory concentration (IC50) against PDE10 is ≤ 1000 nM. The “reduction of PCP-induced hyperactivity (horizontal locomotor activity)” value is on record as “significantly reduces” in the assay with C57BL/6 male mice [1] (10 mg/kg i.p., 20 min before PCP (5 mg/kg, i.p.)) and “effective” with C57BL/6 male mice [1] (oral gavage, dose not given, 40 min before PCP (5 mg/kg, i.p.)).
Take `COc1cc(-c2ccc(C(=O)C(OC)c3ccc(-c4nnc(C)s4)cc3)o2)cc(OC)c1Br` (stereo not drawn) [Compound 34-1, 1-(5-(4-Bromo-3,5-Dimethoxyphenyl)Furan-2-Yl)-2-Methoxy-2-(4-(5-Methyl-1,3,4-Thiadiazol-2-Yl)Phenyl)Ethanone]: the IC50 on PDE10 is ≤ 1000 nM. The “reduction of number of avoidance responses (CAR)” value (“reduction of number … (CAR)” for short) in the assay on C57BL/6 male mice [2] (setting [3]) was “significantly reduces”.
Turning to `COc1cc(-c2ccc(C(=O)C(OC)c3ccc(-c4nnc(C)o4)cc3)o2)cc(OC)c1OC` (stereo not drawn) [Compound 36-1, 2-Methoxy-2-(4-(5-Methyl-1,3,4-Oxadiazol-2-Yl)Phenyl)-1-(5-(3,4,5-Trimethoxyphenyl)Furan-2-Yl)Ethanone], the concentration for half-maximal inhibition (IC50) against PDE10 was ≤ 1000 nM. In addition, the “reduction of number … (CAR)” value in the assay with C57BL/6 male mice [2] (5 mg/kg oral gavage, 25 minutes prior to testing) was “a trend that did not reach significance”; in the assay with C57BL/6 male mice [2] (setting [3]), “a trend that did not reach significance”; in the assay with C57BL/6 male mice [2] (15 mg/kg oral gavage, 25 minutes prior to testing) it was “significantly reduces”.
Turning to `CCOC(C(=O)c1ccc(-c2cc(OC)c(Br)c(OC)c2)o1)c1ccc(-c2nnc(C)o2)cc1` (stereo not drawn) [Compound 47-1, 1-(5-(4-Bromo-3,5-Dimethoxyphenyl)Furan-2-Yl)-2-Ethoxy-2-(4-(5-Methyl-1,3,4-Oxadiazol-2-Yl)Phenyl)Ethanone], the IC50 at PDE10 is ≤ 1000 nM. In addition, the “reduction of number … (CAR)” value is given as “a trend that did not reach significance” with C57BL/6 male mice [2] (setting [4]), “significantly reduces” in the assay on C57BL/6 male mice [2] (setting [5]) and “significantly reduces” in the assay on C57BL/6 male mice [2] (setting [6]).
For the compound `COc1cc(-c2ccc(C(=O)C(OC)c3ccc(-c4nnc(C)s4)cc3)o2)cc(OC)c1Cl` (stereo not drawn) [Compound 49-1, 1-(5-(4-Chloro-3,5-Dimethoxyphenyl)Furan-2-Yl)-2-Methoxy-2-(4-(5-Methyl-1,3,4-Thiadiazol-2-Yl)Phenyl)Ethanone], the IC50 on PDE10 is ≤ 1000 nM. Further, the “reduction of number … (CAR)” value in the assay on C57BL/6 male mice [2] (setting [6]) is reported as “significantly reduces”.
For `COc1cc(-c2ccc(C(=O)C(OC)c3ccc(-c4nnc(C)o4)cc3)o2)cc(OC)c1Cl` (stereo not drawn) [Compound 61-1, 1-(5-(4-Chloro-3,5-Dimethoxyphenyl)Furan-2-Yl)-2-Methoxy-2-(4-(5-Methyl-1,3,4-Oxadiazol-2-Yl)Phenyl)Ethanone], at PDE10, the IC50 is ≤ 1000 nM. In addition, the “reduction of number … (CAR)” value in the assay on C57BL/6 male mice [2] (setting [4]), in the assay with C57BL/6 male mice [2] (setting [5]) and with C57BL/6 male mice [2] (setting [6]) was “significantly reduces” in each case.
`CCOC(C(=O)c1ccc(-c2cc(OC)c(Cl)c(OC)c2)o1)c1ccc(-c2nnc(C)o2)cc1` (stereo not drawn) [Compound 63-1, 1-(5-(4-Chloro-3,5-Dimethoxyphenyl)Furan-2-Yl)-2-Ethoxy-2-(4-(5-Methyl-1,3,4-Oxadiazol-2-Yl)Phenyl)Ethanone]: at PDE10, the half-inhibitory concentration (IC50) was ≤ 1000 nM. The “reduction of number … (CAR)” value with C57BL/6 male mice [2] (setting [4]), with C57BL/6 male mice [2] (setting [5]) and with C57BL/6 male mice [2] (setting [6]) was “significantly reduces” each time.
As for `COc1cc(-c2ccc(C(=O)C(OC)c3ccc(N4CCOCC4)cc3)o2)cc(OC)c1OC` (stereo not drawn) [Compound 65-7], at PDE10, the IC50 is ≤ 1000 nM.
In the case of `COc1cc(-c2ccc(C(=O)C(OC)c3ccc(-c4nnc(C)s4)cc3)o2)cc(OC)c1OC` (stereo not drawn) [Compound 65-8], the IC50 against PDE10 was ≤ 1000 nM.
On the same count and under the same terms, then `COc1cc(-c2ccc(C(=O)C(OC)c3ccc(-n4cccn4)cc3)o2)cc(OC)c1OC` (stereo not drawn) [Compound 65-9], with ≤ 1000 nM.
As for `CCOC(C(=O)c1ccc(-c2cc(OC)c(Cl)c(OC)c2)o1)c1ccc(-c2nnc(C)s2)cc1` (stereo not drawn) [Compound 65-10], at PDE10, the IC50 was ≤ 1000 nM. Besides, the “reduction of number … (CAR)” value with C57BL/6 male mice [2] (setting [5]) and in the assay on C57BL/6 male mice [2] (setting [6]) was “significantly reduces” each time.
For the compound `CCOC(C(=O)c1ccc(-c2cc(OC)c(Br)c(OC)c2)o1)c1ccc(-c2nnc(C)s2)cc1` (stereo not drawn) [Compound 65-11], the IC50 on PDE10 is ≤ 1000 nM.
On the same count and under the same terms, the result for `COc1cc(-c2ccc(C(=O)C(OC)c3ccc(-c4nnc(C)o4)cc3)o2)cc(OC)c1C#N` (stereo not drawn) [Compound 65-12] reads ≤ 1000 nM; that for `CCOC(C(=O)c1ccc(-c2cc(OC)c(F)c(OC)c2)o1)c1ccc(-c2nnc(C)o2)cc1` (stereo not drawn) [Compound 65-13], ≤ 1000 nM.
For `COc1cc(-c2ccc(C(=O)C(OC)c3ccc(-c4nnc(C)o4)cc3)o2)cc(OC)c1O` (stereo not drawn) [Compound 65-15], at PDE10, the IC50 was ≤ 1000 nM.
